Where a SMILES comes first, the peptide text is derived from it. Bridges are numbered along the chain shown (N, C = ends). Where no end group is shown, it is not given here. [ ]: non-standard residue; d: D form. PhLac = O=C(O)[C@@H](O)Cc1ccccc1; Dab = NCC[C@H](N)C(=O)O; Aib = CC(C)(N)C(=O)O

In one experiment the target is T1, glucagon receptor (Homo sapiens, UniProt P47871).
T1 construct: expressed in transfected cells; host or cells: HEK293
Put plainly: cAMP synthesis functional assay (firefly luciferase reporter in HEK293 cells), glucagon receptor. The experiment is classed as cell-based. The note with it: for % activity*: glucagon receptor; for EC50: Glucagon Receptor EC50, nM; for EC50 / Glucagon Receptor relative activity: Table 1; for Glucagon Receptor relative activity: relative to the native hormone of the indicated receptor.

The next experiment deals with T2, GLP-1 receptor (Homo sapiens, UniProt P43220).
T2 construct: expressed in transfected cells; host or cells: HEK293
T2 sequence (P43220 24-463, species assumed): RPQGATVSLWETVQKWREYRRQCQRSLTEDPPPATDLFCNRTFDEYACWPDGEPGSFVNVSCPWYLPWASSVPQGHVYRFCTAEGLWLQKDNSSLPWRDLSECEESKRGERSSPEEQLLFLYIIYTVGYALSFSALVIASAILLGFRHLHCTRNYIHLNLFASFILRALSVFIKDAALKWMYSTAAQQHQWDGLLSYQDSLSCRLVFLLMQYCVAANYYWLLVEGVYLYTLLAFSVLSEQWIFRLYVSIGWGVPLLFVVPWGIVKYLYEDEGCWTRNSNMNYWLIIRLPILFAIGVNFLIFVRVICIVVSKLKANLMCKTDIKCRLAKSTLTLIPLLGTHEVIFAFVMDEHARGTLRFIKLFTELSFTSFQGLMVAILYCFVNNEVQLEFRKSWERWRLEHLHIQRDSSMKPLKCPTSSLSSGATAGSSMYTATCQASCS
Put plainly: cAMP synthesis functional assay (firefly luciferase reporter in HEK293 cells), GLP-1 receptor. The experiment is classed as cell-based. Conditions: Table 1; for GLP-1 Receptor relative activity: relative to the native hormone of the indicated receptor; for EC50: GLP-1 Receptor EC50, nM.

T1 sequence (P47871 26-477): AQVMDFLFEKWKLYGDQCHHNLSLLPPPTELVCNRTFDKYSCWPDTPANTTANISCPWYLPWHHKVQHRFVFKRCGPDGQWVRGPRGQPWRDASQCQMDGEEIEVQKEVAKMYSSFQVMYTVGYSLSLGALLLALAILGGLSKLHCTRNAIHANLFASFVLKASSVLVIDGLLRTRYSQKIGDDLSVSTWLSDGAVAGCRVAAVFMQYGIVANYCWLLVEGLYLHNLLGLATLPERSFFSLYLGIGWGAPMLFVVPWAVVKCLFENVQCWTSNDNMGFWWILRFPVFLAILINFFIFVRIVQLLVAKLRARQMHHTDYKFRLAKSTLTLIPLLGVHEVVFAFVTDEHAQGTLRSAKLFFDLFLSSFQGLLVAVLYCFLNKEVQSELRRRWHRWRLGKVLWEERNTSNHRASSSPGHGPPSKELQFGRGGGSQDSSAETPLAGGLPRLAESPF

As to `CNC(=O)CC[C@H](NC(=O)[C@H](CO)NC(=O)[C@@H](N)Cc1c[nH]cn1)C(=O)NCC(=O)N[C@H](C(=O)N[C@@H](Cc1ccccc1)C(=O)N[C@H](C(=O)N[C@@H](CO)C(=O)N[C@@H](CC(=O)O)C(=O)N[C@@H](Cc1ccc(O)cc1)C(=O)N[C@@H](CO)C(=O)N[C@@H](CCCCN)C(=O)N[C@@H](Cc1ccc(O)cc1)C(=O)N[C@@H](CC(C)C)C(=O)N[C@@H](CC(=O)O)C(=O)NC(C)(C)C(=O)N[C@@H](CCCNC(=N)N)C(=O)N[C@@H](CCCNC(=N)N)C(=O)N[C@@H](C)C(=O)N[C@@H](C)C(=O)N[C@@H](CC(=O)O)C(=O)N[C@@H](Cc1ccccc1)C(=O)N[C@H](C(=O)N[C@@H](C)C(=O)N[C@@H](Cc1c[nH]c2ccccc12)C(=O)N[C@@H](CC(C)C)C(=O)N[C@@H](CCSC)C(=O)N[C@@H](CC(=O)O)C(=O)N[C@@H](CCC(=O)O)C(=O)O)C(C)C)[C@@H](C)O)[C@@H](C)O` [SEQ ID NO: 251], the “% activity*” value at glucagon receptor (Table 6) worked out at 55%.
With `CC(=O)NCC[C@H](NC(=O)[C@H](CO)NC(=O)[C@@H](N)Cc1c[nH]cn1)C(=O)NCC(=O)N[C@H](C(=O)N[C@@H](Cc1ccccc1)C(=O)N[C@H](C(=O)N[C@@H](CO)C(=O)N[C@@H](CC(=O)O)C(=O)N[C@@H](Cc1ccc(O)cc1)C(=O)N[C@@H](CO)C(=O)N[C@@H](CCCCN)C(=O)N[C@@H](Cc1ccc(O)cc1)C(=O)N[C@@H](CC(C)C)C(=O)N[C@@H](CC(=O)O)C(=O)NC(C)(C)C(=O)N[C@@H](CCCNC(=N)N)C(=O)N[C@@H](CCCNC(=N)N)C(=O)N[C@@H](C)C(=O)N[C@@H](C)C(=O)N[C@@H](CC(=O)O)C(=O)N[C@@H](Cc1ccccc1)C(=O)N[C@H](C(=O)N[C@@H](C)C(=O)N[C@@H](Cc1c[nH]c2ccccc12)C(=O)N[C@@H](CC(C)C)C(=O)N[C@@H](CC(C)C)C(=O)N[C@@H](CC(=O)O)C(=O)N[C@H](C(=O)NCC(=O)N1CCC[C@H]1C(=O)N[C@@H](CO)C(=O)N[C@@H](CO)C(=O)NCC(=O)N[C@@H](C)C(=O)N1CCC[C@H]1C(=O)N1CCC[C@H]1C(=O)N1CCC[C@H]1C(=O)N[C@@H](CO)C(N)=O)[C@@H](C)O)C(C)C)[C@@H](C)O)[C@@H](C)O` [SEQ ID NO: 254] (H-HS[Dab](Ac)GTFTSDYSKYLD[Aib]RRAADFVAWLLDTGPSSGAPPPS-NH2; N-terminus assumed), at glucagon receptor (Table 7), the “% activity*” value is recorded as 113%.
The same measure, in the same setting: the value for `CC(=O)NCC[C@H](NC(=O)[C@H](CO)NC(=O)[C@@H](N)Cc1c[nH]cn1)C(=O)NCC(=O)N[C@H](C(=O)N[C@@H](Cc1ccccc1)C(=O)N[C@H](C(=O)N[C@@H](CO)C(=O)N[C@@H](CC(=O)O)C(=O)N[C@@H](Cc1ccc(O)cc1)C(=O)N[C@@H](CO)C(=O)N[C@@H](CCCCN)C(=O)N[C@@H](Cc1ccc(O)cc1)C(=O)N[C@@H](CC(C)C)C(=O)N[C@@H](CC(=O)O)C(=O)NC(C)(C)C(=O)N[C@@H](CCCNC(=N)N)C(=O)N[C@@H](CCCNC(=N)N)C(=O)N[C@@H](C)C(=O)N[C@H](C(=O)N[C@@H](CC(=O)O)C(=O)N[C@@H](Cc1ccccc1)C(=O)N[C@H](C(=O)N[C@H](C(=O)N[C@@H](Cc1c[nH]c2ccccc12)C(=O)N[C@@H](CC(C)C)C(=O)N[C@@H](CC(C)C)C(=O)N[C@@H](CC(=O)O)C(=O)N[C@@H](CCC(=O)O)C(=O)O)[C@@H](C)O)C(C)C)[C@@H](C)O)[C@@H](C)O)[C@@H](C)O` [SEQ ID NO: 256] (H-HS[Dab](Ac)GTFTSDYSKYLD[Aib]RRATDFVTWLLDE-OH; N-terminus and C-terminus assumed) was 46%.
On to `CC[C@H](C)[C@H](NC(=O)[C@H](Cc1ccccc1)NC(=O)[C@H](CCC(=O)O)NC(=O)[C@H](CCCCN)NC(=O)[C@H](CCC(N)=O)NC(=O)[C@H](Cc1c[nH]cn1)NC(=O)[C@@H](NC(=O)[C@@H]1CCC(=O)NCCCC[C@H](NC(=O)[C@H](CO)NC(=O)[C@H](Cc2ccc(O)cc2)NC(=O)[C@H](CC(=O)O)NC(=O)[C@H](CO)NC(=O)[C@@H](NC(=O)[C@H](Cc2ccccc2)NC(=O)[C@@H](NC(=O)CNC(=O)[C@H](CCC(N)=O)NC(=O)[C@H](CO)NC(=O)[C@@H](N)Cc2c[nH]cn2)[C@@H](C)O)[C@@H](C)O)C(=O)N[C@@H](Cc2ccc(O)cc2)C(=O)N[C@@H](CC(C)C)C(=O)N[C@@H](CC(=O)O)C(=O)N1)[C@@H](C)CC)C(=O)N[C@@H](C)C(=O)N[C@@H](Cc1c[nH]c2ccccc12)C(=O)N[C@@H](CC(C)C)C(=O)N[C@@H](CCSC)C(=O)N[C@@H](CC(N)=O)C(=O)N[C@H](C(N)=O)[C@@H](C)O` [mt-63], for which, at glucagon receptor, the EC50 turned out to be 3.15 nM and the “Glucagon Receptor relative activity” value worked out at 6.03%. In addition, the “GLP-1 Receptor relative activity” value at GLP-1 receptor is on record as 12.90%.
With `CC[C@H](C)[C@H](NC(=O)[C@H](Cc1ccccc1)NC(=O)[C@H](CCC(=O)O)NC(=O)[C@@H]1CCCCNC(=O)CC[C@H](NC(=O)[C@H](CC(=O)O)NC(=O)[C@H](CC(C)C)NC(=O)[C@H](Cc2ccc(O)cc2)NC(=O)[C@@H](NC(=O)[C@H](CO)NC(=O)[C@H](Cc2ccc(O)cc2)NC(=O)[C@H](CC(=O)O)NC(=O)[C@H](CO)NC(=O)[C@@H](NC(=O)[C@H](Cc2ccccc2)NC(=O)[C@@H](NC(=O)CNC(=O)[C@H](CCC(N)=O)NC(=O)[C@H](CO)NC(=O)[C@@H](N)Cc2c[nH]cn2)[C@@H](C)O)[C@@H](C)O)[C@@H](C)CC)C(=O)N[C@@H]([C@@H](C)CC)C(=O)N[C@@H](Cc2c[nH]cn2)C(=O)N[C@@H](CCC(N)=O)C(=O)N1)C(=O)N[C@@H](CS)C(=O)N[C@@H](Cc1c[nH]c2ccccc12)C(=O)N[C@@H](CC(C)C)C(=O)N[C@@H](CC(C)C)C(=O)N[C@@H](C)C(=O)N[C@@H](CCC(N)=O)C(N)=O` [mt-84] (H-HSQGTFTSDYSIYLDEIHQKEFICWLLAQ-NH2; lactam 16-20; N-terminus assumed), on glucagon receptor, the concentration giving a half-maximal response (EC50) was determined as 0.45 nM and the “Glucagon Receptor relative activity” value was determined as 13.33%. For the same compound, on GLP-1 receptor, the EC50 was 0.16 nM and the “GLP-1 Receptor relative activity” value turned out to be 50.00%.
As for `CC[C@H](C)[C@H](NC(=O)[C@H](Cc1ccccc1)NC(=O)[C@@H]1CCC(=O)NCCCC[C@@H]2NC(=O)[C@@H](NC(=O)[C@H](CC(=O)O)NC(=O)[C@H](CC(C)C)NC(=O)[C@H](Cc3ccc(O)cc3)NC(=O)[C@@H](NC(=O)[C@H](CO)NC(=O)[C@H](Cc3ccc(O)cc3)NC(=O)[C@H](CC(=O)O)NC(=O)[C@H](CO)NC(=O)[C@@H](NC(=O)[C@H](Cc3ccccc3)NC(=O)[C@@H](NC(=O)CNC(=O)[C@H](CCC(N)=O)NC(=O)[C@H](CO)NC(=O)[C@@H](N)Cc3c[nH]cn3)[C@@H](C)O)[C@@H](C)O)[C@@H](C)CC)CCC(=O)NCCCC[C@H](NC(=O)[C@H](CCC(N)=O)NC(=O)[C@H](Cc3c[nH]cn3)NC2=O)C(=O)N1)C(=O)N[C@@H](C)C(=O)N[C@@H](Cc1c[nH]c2ccccc12)C(=O)N[C@@H](CC(C)C)C(=O)N[C@@H](CC(C)C)C(=O)N[C@@H](C)C(=O)N[C@@H](CCC(N)=O)C(N)=O` [mt-93], the “Glucagon Receptor relative activity” value at glucagon receptor worked out at 14.33%. On GLP-1 receptor, a half-maximal effect (EC50) was put at 0.04 nM and the “GLP-1 Receptor relative activity” value stood at 150.00%.
On to `CC[C@H](C)[C@H](NC(=O)[C@H](CO)NC(=O)[C@H](Cc1ccc(O)cc1)NC(=O)[C@H](CC(=O)O)NC(=O)[C@H](CO)NC(=O)[C@@H](NC(=O)[C@@H](O)Cc1ccccc1)[C@@H](C)CC)C(=O)N[C@@H](C)C(=O)N[C@@H](CCSC)C(=O)N[C@@H](CC(=O)O)C(=O)N[C@H]1CCC(=O)NCCCC[C@@H](C(=O)N[C@@H](CC(=O)O)C(=O)N[C@@H](Cc2ccccc2)C(=O)N[C@H](C(=O)N[C@@H](CC(N)=O)C(=O)N[C@@H](Cc2c[nH]c3ccccc23)C(=O)N[C@@H](CC(C)C)C(=O)N[C@@H](CC(C)C)C(=O)N[C@@H](C)C(=O)N[C@@H](CCC(N)=O)C(N)=O)C(C)C)NC(=O)[C@H](CCC(N)=O)NC(=O)[C@H](Cc2c[nH]cn2)NC(=O)[C@H]([C@@H](C)CC)NC1=O` [mt-113] (H-[PhLac]ISDYSIAMDEIHQKDFVNWLLAQ-NH2; lactam 11-15), for which the “Glucagon Receptor relative activity” value on glucagon receptor was 0.07%. For the same compound, on GLP-1 receptor, the “GLP-1 Receptor relative activity” value amounted to 0.04%.
Taken in the same sequence, the figures for `CC[C@H](C)[C@@H]1NC(=O)[C@@H](NC(=O)[C@H](CC(=O)O)NC(=O)[C@H](CC(C)C)NC(=O)[C@H](Cc2ccc(O)cc2)NC(=O)[C@H](CCCCN)NC(=O)[C@H](CO)NC(=O)[C@H](Cc2ccc(O)cc2)NC(=O)[C@H](CC(=O)O)NC(=O)[C@H](CO)NC(=O)[C@@H](NC(=O)[C@@H](O)Cc2ccccc2)[C@@H](C)O)CCC(=O)NCCCC[C@@H](C(=O)N[C@@H](CC(=O)O)C(=O)N[C@@H](Cc2ccccc2)C(=O)N[C@H](C(=O)N[C@@H](CC(N)=O)C(=O)N[C@@H](Cc2c[nH]c3ccccc23)C(=O)N[C@@H](CC(C)C)C(=O)N[C@@H](CC(C)C)C(=O)N[C@@H](C)C(=O)N[C@@H](CCC(N)=O)C(N)=O)C(C)C)NC(=O)[C@H](CCC(N)=O)NC(=O)[C@H](Cc2c[nH]cn2)NC1=O` [mt-114] (H-[PhLac]TSDYSKYLDEIHQKDFVNWLLAQ-NH2; lactam 11-15) were 0.28% and 0.05%.
Turning to `CC[C@H](C)[C@H](NC(=O)[C@H](CO)NC(=O)[C@H](Cc1ccc(O)cc1)NC(=O)[C@H](CC(=O)O)NC(=O)[C@H](CO)NC(=O)[C@@H](NC(=O)[C@H](Cc1ccccc1)NC(=O)[C@@H](NC(=O)CNC(=O)[C@H](CCC(N)=O)NC(=O)C(C)(C)N)[C@@H](C)O)[C@@H](C)O)C(=O)N[C@@H](Cc1ccc(O)cc1)C(=O)N[C@@H](CC(C)C)C(=O)N[C@@H](CC(=O)O)C(=O)N[C@@H](CCC(=O)O)C(=O)N[C@@H](CCC(=O)O)C(=O)N[C@@H](C)C(=O)N[C@H](C(=O)N[C@@H](CCCNC(=N)N)C(=O)N[C@@H](CC(C)C)C(=O)N[C@@H](Cc1ccccc1)C(=O)N[C@H](C(=O)N[C@@H](CC(N)=O)C(=O)N[C@@H](Cc1c[nH]c2ccccc12)C(=O)N[C@@H](CC(C)C)C(=O)N[C@@H](CC(C)C)C(=O)N[C@@H](C)C(=O)NCC(=O)NCC(=O)N1CCC[C@H]1C(=O)N[C@@H](CO)C(=O)N[C@@H](CO)C(=O)NCC(=O)N[C@@H](C)C(=O)N1CCC[C@H]1C(=O)N1CCC[C@H]1C(=O)N1CCC[C@H]1C(=O)N[C@@H](CO)C(N)=O)C(C)C)C(C)C` [mt-194] (H-[Aib]QGTFTSDYSIYLDEEAVRLFVNWLLAGGPSSGAPPPS-NH2; N-terminus assumed), the “GLP-1 Receptor relative activity” value on GLP-1 receptor is given as 0.63%.
Still for that read-out and setting: the value for “FTSDYSIYLDEQAAKEFVNWLLAGGPSSGAPPPS-NH2 [mt-192]” was 0.06%.

For the origin of these results see patent US9062124B2, “GIP-based mixed agonists for treatment of metabolic disorders and obesity” (priority 2008, dated 2015).
